Results from the METLIN SMRT retention time set (Domingo-Almenara et al. 2019).

Experiment: gradient 5% acetonitrile 3 min, to 50% in 2 min, to 85% in 15 min, held 3 min, 100 µL/min
Conditions: column: Zorbax Extend-C18 2.1 x 50 mm; eluents: water / acetonitrile, 0.1% formic acid
Method in brief: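 In both positive and negative ionization mode, a quadrupole time-of-flight mass spectrometer coupled to HPLC analyzed pure standards run in mixtures of ~100 molecules. The Zorbax Extend-C18 column (2.1 × 50 mm, 1.8 μm) was operated at 100 μL/min with water and acetonitrile, each containing 0.1% formic acid. The dead volume was 40 μL and the dwell volume 900 μL. Retention time came from adduct peaks that were computationally picked and individually inspected by hand.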

SMILES	RP-LC retention time [s]
Cc1c(C(=O)N2CCSCC2)cnn1-c1cc(-c2nc(C3CC3)no2)ccn1	949
CC(C)n1nnc2cc(C(=O)N(C)CC(=O)Nc3ccc(F)cc3)ccc21	726
CCCCc1ccc(NC(=O)Cn2nc3cc(C)nc(-c4ccc(OC)cc4)n3c2=O)cc1	1040
CCc1ccc(CNC(=O)CN2CCc3ccccc3C2C(=O)N2CCCCC2)cc1 (centres undefined)	965
Nc1cccc(N2CCn3c(nc4ccccc43)C2)c1	525
Cc1nc(-c2cc(S(=O)(=O)N(C)C3CCCCC3)cn2C)sc1C(=O)N1CCCC1	959
Cc1cc(NC(=O)C2CCCN(c3ccc(-n4cccn4)nn3)C2)no1 (centres undefined)	654
COCCN(CC(=O)N1CCc2sccc2C1COc1cccc(F)c1)C(=O)CC(C)C (centres undefined)	976
COc1ccc(NC(=O)Nc2cccn3c(C4CCC4)nnc23)cc1OC	718
O=C(c1ccc(-c2cccnc2)nc1)N1CCN(c2ccc(Cl)cc2)CC1	746
Cc1ccsc1C(=O)N1CCC2(CC1)NC(=O)N(Cc1ccc(Cl)cc1)C2=O	844
COCCN1C(=O)c2ccccc2C(C(=O)N2CCN(c3ccccn3)CC2)C1c1ccc(F)cc1 (centres undefined)	619
COc1ccccc1CNC(=O)CN1CCN(Cc2ccc(F)cc2)C1=O	778
CCCN(C)CC1(O)CCC2(CCN(C(=O)c3ccoc3)CC2)CC1	575
COc1cc(NC(=O)NCC2(O)CCCC2)cc(OC)c1	660
CO[C@@H]1C=C2CCN(C)[C@@H]2C2c3cc4c(cc3C(=O)O[C@@H]21)OCO4 (some centres undefined)	604
COc1cccc(-c2noc(NC3CC3)n2)c1OC	752
Cc1ccc(OCc2nnc(SCC(=O)Nc3nc(-c4ccccc4)c(C)s3)o2)cc1	1090
CN(C)C(=O)CN1CCN(c2ccccc2)CC1	792
Cc1c(-c2nnc(C(=O)NCCCN3CCOCC3)o2)oc2c(C)cccc12	696
COCCN1CCn2cc(S(=O)(=O)Nc3ccc(C#N)cc3)cc2C1=O	671
CCCn1cc(C(=O)Nc2ccccc2CC)c2cccnc21	919
COc1ccc(-c2cc(N3CCC(NC(=O)c4cccc(Br)c4)C3)n[nH]2)cc1 (centres undefined)	738
COc1ccccc1OCC1c2ccsc2CCN1C(=O)CN(CC1CC1)C(=O)NC(C)C (centres undefined)	919
O=C(O)c1ccc(S(=O)(=O)NCc2ccccn2)cc1	543

SMILES	RP-LC retention time [s]
O=C(Cn1c(=O)c2cccn2c2ccc(F)cc21)N1CCCCC1	795
Cc1ccc(F)c(NC(=O)c2cn3c(n2)CSCC3)c1	811
O=C(CC1CCCCC1)N1CCN(c2cc(-c3ccc(Cl)cc3)[nH]n2)CC1	936
CSc1cccc(NC(=O)N2CCc3nc[nH]c3C2)c1	590
CCn1cc(CCN2CCN(S(=O)(=O)c3ccc(C#N)cc3)CC2)c2cccnc21	634
CCc1ccc(NC(=O)C2Cc3cc(S(=O)(=O)N4CCCCC4)ccc3N2C(C)=O)cc1 (centres undefined)	864
CCN1CCN(C(=O)C2CCCN(S(=O)(=O)c3ccc(OC)c(OC)c3)C2)CC1 (centres undefined)	593
O=C(CCCn1c(=O)c2cccn2c2ccccc21)NCCCN1CCC(N2CCCCC2)CC1	584
O=c1ccn(-c2cccc(F)c2)nc1-c1nc(-c2ccc(F)cc2)no1	902
Cc1cccc(-c2noc(-c3nn(-c4ccc(Cl)cc4)ccc3=O)n2)c1	1000
CCc1noc2nc(C)n(CC(=O)NCC(C)c3ccccc3)c(=O)c12 (centres undefined)	835
COCCC1CCOC2(CCN(C(=O)C3CCN(C(C)=O)CC3)CC2)C1 (centres undefined)	646
O=C(c1ccccc1Cl)N1CCN(c2cnn3c(C4CC4)nnc3c2)CC1	590
CCC(C)C(=O)N1CCc2[nH]nc(C(=O)NCCCc3ccccc3)c2C1 (centres undefined)	781
Cc1cc(=O)n(CC(=O)Nc2ccc(N(C)C)cc2)c(N2CCOCC2)n1	555
O=C(CN1C(=O)c2ccccc2C1=O)Nc1cccc(-c2cn3c(n2)SCC3)c1	581
CCOC(=O)c1nc(Nc2ccccc2F)c2ccccc2n1	812
CCCCNC(=O)C(C)Sc1nc2nc(C)cc(C)n2n1 (centres undefined)	679
CCCn1cc(CCNC(=O)Nc2ccc(OC)cc2)c2cccnc21	713
Cc1nc(CNC(=O)C2CCN(C(=O)Nc3ccc(Br)cc3F)CC2)cs1	699
CCn1c(=O)sc2cc(S(=O)(=O)N3CCC(C(=O)NCC4CCCO4)CC3)ccc21 (centres undefined)	719
O=C([C@@H]1C[C@H](F)CN1C(=O)NCCc1ccccc1)N1CCOCC1	608
Cc1ccc(NC(=O)c2ccc(CN3CCN(C)CC3)cc2)cc1Nc1nccc(-c2cccnc2)n1	640
O=C(Nc1ccc2[nH]nc(-c3ccncc3)c2c1)[C@@H]1CCN(CC(=O)N2CCN(c3ccc(-c4ncccn4)cc3)CC2)C1	628
O=C1NCCCn2cc(S(=O)(=O)Nc3ccc(N4CCOCC4)cc3)cc21	596

Further lines, results first:

RP-LC retention time [s]	SMILES
777	O=C(NCCC1CCN(C(=O)Nc2ccc(F)cc2F)CC1)C1CCCC1
599	O=C(C1CCOCC1)N1CCC(c2noc(-c3ccccn3)n2)C1 (centres undefined)
1080	Cc1ccc(Nc2c(-c3cccc(Cl)c3)nc3ccc(Cl)cn23)cc1
1340	Cc1ccccc1-c1noc(C2CCCN2S(=O)(=O)c2ccc3c(c2)CCCC3)n1 (centres undefined)
727	O=C(CCNc1c(-c2ccc(F)cc2)nc2cnccn12)Nc1ccc2c(c1)OCO2
691	Fc1ccc(N2CCN(Cc3nnc(-c4ccccc4)o3)CC2)cc1
732	Cc1cc(N2CCN(c3ccccn3)CC2)n2ncc(-c3ccccc3Cl)c2n1
667	CN(C)CCNC(=O)C1CCN(c2nc3ccc(-c4ccccc4)nc3s2)CC1
716	CC(=O)N1CCN(c2nccc(-n3nc(C)cc3C)n2)CC1
1340	CCc1ccc(N2CC(c3noc(-c4ccc(-c5ccccc5)cc4)n3)CC2=O)cc1 (centres undefined)
778	COc1ccc(-c2noc(-c3ccc(N4CCN(C5CCCCC5)CC4)nc3)n2)cc1
744	COc1ccc(N2CCN(c3nnc(-c4nnc(C)o4)c4ccccc34)CC2)cc1
691	Cc1ccc(CN2CC(Oc3ccc(-c4noc(-c5cccnc5)n4)cc3)C2)o1
782	O=C(COc1ccccc1)N1CCN(S(=O)(=O)c2cc3c4c(c2)CCC(=O)N4CCC3)CC1
788	NS(=O)(=O)c1ccc(Cl)c(-c2nnc(-c3ccccc3)o2)c1
695	Cc1noc(-c2ccc(OC3CN(C(=O)C4CCOC4)C3)cc2)n1 (centres undefined)
620	Cc1cc(F)cc2c(=O)c3c([nH]c12)CCN(CC(=O)Nc1cccc(F)c1)C3
698	Cc1cc(NS(=O)(=O)c2cc3n(c2)CCN(C)C3=O)ccc1F
642	CCCNC(=O)C1CCCN(c2ccc(SCC(=O)Nc3ccc4c(c3)OCO4)nn2)C1 (centres undefined)
972	O=C(Cn1cc(-c2ccc(F)cc2)oc1=O)N1CCN(c2cccc(Cl)c2)CC1

RP-LC retention time [s]	SMILES
796	O=C(c1ccccc1Cl)N1CCN(S(=O)(=O)c2cc3c4c(c2)CCC(=O)N4CCC3)CC1
935	CCNC(=O)N(CC(=O)N1CCc2sccc2C1COc1ccc(C)cc1)CC1CC1 (centres undefined)
652	O=C(CSc1ccc(NC(=O)C2CC2)nn1)NCc1cccs1
669	COc1ccc(C(=O)CC2(O)C(=O)Nc3ccccc32)cc1 (centres undefined)
880	O=C(c1ccoc1)N1CCC(Oc2nccnc2N2CCc3ccccc32)C1 (centres undefined)
597	CN(C)C(=O)c1ccc2c(c1)nc(CN1CCN(C(=O)c3ccc(C#N)cc3)CC1)n2C
807	CCCCNC(=O)Cn1nc2c3cc(-c4ccccc4)nn3ccn2c1=O
1160	Fc1cccc(Cc2noc(-c3nc(-c4ccccc4)no3)n2)c1
882	COc1cccc(N2CCN(Cc3nc(-c4ccc(N5CCCC(C)C5)nc4)no3)CC2)c1 (centres undefined)
922	CCc1ccc(NC(=O)C2CCN(S(=O)(=O)c3cc(C(=O)N4CCCC4)cs3)CC2)cc1
883	CC1=C(c2cccc(Cl)c2)S(=O)(=O)N=C1N1CCCN(C(=O)NC(C)(C)C)CC1
612	CC(Oc1ccccc1F)C(=O)NCCOc1ccc(-c2ccccn2)nn1 (centres undefined)
714	COc1ccc(NC(=O)N2CC=C(c3cn(C)c4ncccc34)CC2)cc1OC
710	CC(C)(C)NC(=O)c1ccc(-n2cc(CNC(=O)C3CCC3)cn2)cc1
874	Cc1cc(C)cc(NC(=O)NC2CCN(c3ccc(F)c(C)c3)C2=O)c1 (centres undefined)
1200	Cc1ccc(NC(=O)C2CCCN(c3nc4c(s3)c(C)nn4-c3ccccc3)C2)c(C)c1 (centres undefined)
742	O=C(NCc1cccs1)C1CCN(c2cnn(Cc3ccccc3)c(=O)c2)CC1
615	Cc1ccc(CNC(=O)C2CCN(CCc3cn(C)c4ncccc34)CC2)cc1
718	CCc1cccc(NC(=O)Cn2c(CC)nc3c(c2=O)CN(Cc2ccccc2)CC3)c1
